Measured values taken from patent US10988459B2 (priority 2015, dated 2021).

These compounds were tested against human RIP1 kinase domain (2-375) (Homo sapiens (Human), UniProt Q13546) (assay: biochemical). Conditions: Table 1; apparent Ki (Morrison tight-binding fit); 50 nM RIP1 kinase domain, 50 uM ATP, 2 hours incubation; read-out: RIP1 Ki.
Assay type: biochemical
In short: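 50 nM purified kinase domain from baculovirus-infected insect cells, incubated 2 h with compound in 50 mM Hepes pH 7.5, 30 mM MgCl2, 1 mM DTT, 50 uM ATP, 0.002% Brij-35, 0.5% DMSO. ADP formation read by Transcreener FP at 633 nm excitation. Ki^app fitted with the Morrison tight-binding equation.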

Sequence of human RIP1 kinase domain (2-375) (Q13546 2-375): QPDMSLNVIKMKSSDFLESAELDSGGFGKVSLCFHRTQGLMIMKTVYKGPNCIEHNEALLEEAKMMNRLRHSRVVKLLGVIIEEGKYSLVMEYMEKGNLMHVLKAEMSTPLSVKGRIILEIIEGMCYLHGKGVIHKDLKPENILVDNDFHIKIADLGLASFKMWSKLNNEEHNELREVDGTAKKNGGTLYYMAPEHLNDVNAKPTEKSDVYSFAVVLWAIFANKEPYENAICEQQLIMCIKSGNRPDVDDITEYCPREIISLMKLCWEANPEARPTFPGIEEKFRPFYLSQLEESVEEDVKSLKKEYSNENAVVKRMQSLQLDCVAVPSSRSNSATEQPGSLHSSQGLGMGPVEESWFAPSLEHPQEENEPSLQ

`Cc1cc2n(n1)CCC(NC(=O)c1ncn(Cc3ccccc3)n1)C(=O)N2C` (stereo not shown) [Example 72, 1-benzyl-N-(2,4-dimethyl-5-oxo-5,6,7,8-tetrahydro-4H-pyrazolo[1,5-a][1,3]diazepin-6-yl)-1H-1,2,4-triazole-3-carboxamide] and `CN1C(=O)[C@@H](NC(=O)c2nnc(Cc3ccccc3)[nH]2)CCn2nc(C(F)(F)F)cc21` [Example 80, (S)-5-benzyl-N-(4-methyl-5-oxo-2-(trifluoromethyl)-5,6,7,8-tetrahydro-4H-pyrazolo[1,5-a][1,3]diazepin-6-yl)-4H-1,2,4-triazole-3-carboxamide] are within 1.5-fold of each other in Ki: 68 nM for the first, 64 nM for the second.

Going from `CN1C(=O)[C@@H](NC(=O)c2n[nH]c3c2CC2CC2(C)C3)COc2ccccc21` (stereo partly drawn) [Example 1, 5a-methyl-N—((S)-5-methyl-4-oxo-2,3,4,5-tetrahydrobenzo[b][1,4]oxazepin-3-yl)-1,4,4a,5,5a,6-hexahydrocyclopropa[f]indazole-3-carboxamide] to `CN1C(=O)[C@@H](NC(=O)c2cc3c(cn2)CCCC3)COc2ccccc21` [Example 23, (S)—N-(5-methyl-4-oxo-2,3,4,5-tetrahydrobenzo[b][1,4]oxazepin-3-yl)-5,6,7,8-tetrahydroisoquinoline-3-carboxamide], the Ki falls from 4700 nM to 2000 nM (2.4-fold).

Same assay, conditions: Table 5; apparent Ki (Morrison tight-binding fit); 50 nM RIP1 kinase domain, 50 uM ATP, 2 hours incubation; read-out: Ki

Going from `CN1C(=O)[C@@H](NC(=O)c2ncn(Cc3ccccc3)n2)CCn2nc(CCN3CC(F)(F)C3)cc21` [Example 772] to `CN1C(=O)[C@@H](NC(=O)c2ncn(Cc3ccccc3)n2)CCn2nc(CNCC(F)(F)F)cc21` (single isomer, unassigned) [Example 733], the Ki falls from 115 nM to 68 nM (1.7-fold). The second binds more tightly here.

First: Cc1cc2n(n1)CC[C@H](NC(=O)c1cc3c(-c4ccccc4)cccn3n1)C(=O)N2C [Example 714, (S)—N-(2,4-dimethyl-5-oxo-5,6,7,8-tetrahydro-4H-pyrazolo[1,5-a][1,3]diazepin-6-yl)-4-phenylpyrazolo[1,5-a]pyridine-2-carboxamide]
Second: CN1C(=O)[C@@H](NC(=O)c2ncn(Cc3ccccc3F)n2)CCn2nc(CCN3CC4CC3CO4)cc21 (stereo partly shown) [Example 762]
The Ki of the first is 14-fold lower: 13 nM for the first, 182 nM for the second. The first binds more tightly here.

`CN1C(=O)[C@@H](NC(=O)c2cc3c(cn2)CO[C@@]3(C)C(F)(F)F)COc2ccccc21` [Example 744, (1R)-1-methyl-N-[(3S)-5-methyl-4-oxo-2,3-dihydro-1,5-benzoxazepin-3-yl]-1-(trifluoromethyl)-3H-furo[3,4-c]pyridine-6-carboxamide] was tested, and the Ki was 10 nM.

Same assay, conditions: human RIP1 kinase domain (2-375), 50 uM ATP, 2 hours incubation, Transcreener ADP assay; read-out: RIP1 Ki

Going from `Cc1cc2n(n1)CC[C@H](NC(=O)c1ncn(Cc3ccc(F)cc3F)n1)C(=O)N2C` [Example 221, (S)-1-(2,4-difluorobenzyl)-N-(2,4-dimethyl-5-oxo-5,6,7,8-tetrahydro-4H-pyrazolo[1,5-a][1,3]diazepin-6-yl)-1H-1,2,4-triazole-3-carboxamide] to `Cc1cnn2c1N(C)C(=O)C(NC(=O)c1ncn(Cc3ccccc3)n1)CC2` (stereo not shown) [Example 107, 1-benzyl-N-(3,4-dimethyl-5-oxo-5,6,7,8-tetrahydro-4H-pyrazolo[1,5-a][1,3]diazepin-6-yl)-1H-1,2,4-triazole-3-carboxamide], the Ki rises from 37.7 nM to 69.7 nM (1.8-fold).

First: CN1C(=O)C(NC(=O)c2cn(Cc3ccc(F)c(F)c3)cn2)CCn2ccnc21 (stereo not shown) [Example 178, 1-(3,4-difluorobenzyl)-N-(9-methyl-8-oxo-6,7,8,9-tetrahydro-5H-imidazo[1,2-a][1,3]diazepin-7-yl)-1H-imidazole-4-carboxamide]
Second: CN1C(=O)[C@@H](NC(=O)c2cc3c(cn2)COC3(C)CC(F)(F)F)CCn2nccc21 (stereo partly drawn) [Example 106, 1-methyl-N—((S)-4-methyl-5-oxo-5,6,7,8-tetrahydro-4H-pyrazolo[1,5-a][1,3]diazepin-6-yl)-1-(2,2,2-trifluoroethyl)-1,3-dihydrofuro[3,4-c]pyridine-6-carboxamide]
The Ki of the first is 1.7-fold lower: 477 nM for the first, 834 nM for the second.

Compared with `CCOC(=O)[C@@H]1[C@@H]2CC[C@H](NC(=O)c3ncn(Cc4ccccc4)n3)C(=O)N(C)[C@@H]21` (single isomer, unassigned) [Example 131], `CN1C(=O)[C@@H](NC(=O)c2n[nH]c3c2CC(c2ccc(F)c(F)c2)OC3)COc2ccccc21` (stereo partly drawn) [Example 206, 5-(3,4-difluorophenyl)-N—((S)-5-methyl-4-oxo-2,3,4,5-tetrahydrobenzo[b][1,4]oxazepin-3-yl)-1,4,5,7-tetrahydropyrano[3,4-c]pyrazole-3-carboxamide] is 9.9-fold lower in Ki: 1300 nM for the first, 131 nM for the second. The second binds more tightly here.

Compound `O=C(N[C@H]1COc2cc(F)cc(F)c2NC1=O)c1n[nH]c2c1C[C@H](C(F)(F)F)CC2` (single isomer, unassigned) [Example 87] has a Ki of 104 nM.

Same assay, conditions: human RIP1 kinase domain (2-375), Transcreener ADP assay, 50 uM ATP, 2 hours incubation; read-out: RIP1 Ki

Going from `Cc1cc2n(n1)CCC(NC(=O)c1ncn(CC3CCCCC3)n1)C(=O)N2C` (stereo not shown) [Example 253, 1-(cyclohexylmethyl)-N-(2,4-dimethyl-5-oxo-5,6,7,8-tetrahydro-4H-pyrazolo[1,5-a][1,3]diazepin-6-yl)-1H-1,2,4-triazole-3-carboxamide] to `CN1C(=O)[C@@H](NC(=O)c2ncn(Cc3cccc(F)c3F)n2)CCn2nc([C@H]3CC3(F)F)cc21` [Example 311, 1-(2,3-difluorobenzyl)-N—((S)-2-((R)-2,2-difluorocyclopropyl)-4-methyl-5-oxo-5,6,7,8-tetrahydro-4H-pyrazolo[1,5-a][1,3]diazepin-6-yl)-1H-1,2,4-triazole-3-carboxamide], the Ki rises from 171 nM to 5250 nM (31-fold).

Going from `CN1C(=O)[C@H](NC(=O)c2nnc(Cc3ccccc3)[nH]2)CCn2nc(C3CC3(F)F)cc21` (stereo partly drawn) [Example 286, 5-benzyl-N-((6R)-2-(2,2-difluorocyclopropyl)-4-methyl-5-oxo-5,6,7,8-tetrahydro-4H-pyrazolo[1,5-a][1,3]diazepin-6-yl)-4H-1,2,4-triazole-3-carboxamide] to `CN1C(=O)[C@@H](NC(=O)c2nnc(Cc3ccccc3)[nH]2)CCn2nc(C3CC3(F)F)cc21` (stereo partly drawn) [Example 285, 5-benzyl-N-((6S)-2-(2,2-difluorocyclopropyl)-4-methyl-5-oxo-5,6,7,8-tetrahydro-4H-pyrazolo[1,5-a][1,3]diazepin-6-yl)-4H-1,2,4-triazole-3-carboxamide], the Ki rises from 92.4 nM to 219 nM (2.4-fold).

Same assay, conditions: tight-binding apparent inhibition constant; human RIP1 kinase domain (2-375) 50 nM, 50 uM ATP, 2 hours; read-out: Ki

First: CC[C@H]1CCc2nc(C(=O)N[C@H]3COc4ccccc4N(C)C3=O)nn21 (single isomer, unassigned) [Example 358]
Second: CN1C(=O)[C@@H](NC(=O)c2nccc(C3(O)CCC3)n2)COc2ccccc21 [Example 537, 4-(1-hydroxycyclobutyl)-N-[(3S)-5-methyl-4-oxo-2,3-dihydro-1,5-benzoxazepin-3-yl]pyrimidine-2-carboxamide]
The Ki of the first is 230-fold lower: 9 nM for the first, 2100 nM for the second.

Compared with `Cc1ncn2c1N(C)C(=O)[C@H](NC(=O)c1ncn(Cc3ccccc3)n1)CC2` [Example 505, 1-benzyl-N-(3R)-1,9-dimethyl-2-oxo-4,5-dihydro-3H-imidazo[1,5-a][1,3]diazepin-3-yl-1,2,4-triazole-3-carboxamide], `CN1C(=O)[C@@H](NC(=O)c2ncn(Cc3ccccc3)n2)CCn2nc(CC3CC3)cc21` [Example 459, (S)-1-benzyl-N-(2-(cyclopropylmethyl)-4-methyl-5-oxo-5,6,7,8-tetrahydro-4H-pyrazolo[1,5-a][1,3]diazepin-6-yl)-1H-1,2,4-triazole-3-carboxamide] is 5.1-fold lower in Ki: 36 nM for the first, 7 nM for the second. The second binds more tightly here.

Going from `CN1C(=O)[C@@H](NC(=O)c2ncn(Cc3cccc(Cl)c3)n2)CCn2nc(C(F)(F)F)cc21` [Example 533] to `CN1C(=O)[C@@H](NC(=O)c2ncn(Cc3ccccc3C(F)(F)F)n2)CCn2nccc21` [Example 583, N-(6S)-4-methyl-5-oxo-7,8-dihydro-6H-pyrazolo[1,5-a][1,3]diazepin-6-yl]-1-[[2-(trifluoromethyl)phenyl]methyl-1,2,4-triazole-3-carboxamide], the Ki falls from 45 nM to 24 nM (1.9-fold).

Compared with `O=C(N[C@H]1CCc2cc(F)cc(F)c2NC1=O)c1nc2cccc(C(F)(F)F)n2n1` [Example 418, (S)—N-(7,9-difluoro-2-oxo-2,3,4,5-tetrahydro-1H-benzo[b]azepin-3-yl)-5-(trifluoromethyl)-[1,2,4]triazolo[1,5-a]pyridine-2-carboxamide], `O=C(N[C@H]1COc2cc(F)cc(F)c2NC1=O)c1nc2n(n1)[C@@H](C(F)(F)F)CCC2` (single isomer, unassigned) [Example 431] is 13-fold higher in Ki: 34.3 nM for the first, 434 nM for the second.

First: CN1C(=O)[C@@H](NC(=O)c2ncn(Cc3ccccc3)n2)CCn2nc(CCCN3CCOCC3)cc21 [Example 662]
Second: CN1C(=O)[C@@H](NC(=O)c2ncn(Cc3ccccc3)n2)CC[C@@H]2[C@H]1C2(F)F (single isomer, unassigned) [Example 364]
The Ki of the first is 7.1-fold lower: 63 nM for the first, 450 nM for the second. The first binds more tightly here.

Going from `CCC[C@@]1(C)OCc2cnc(C(=O)N[C@H]3COc4ccccc4N(C)C3=O)nc21` (racemic) [Example 684, rac-(7R)-7-methyl-7-propyl-N-[rao-(3S)-5-methyl-4-oxo-2,3-dihydro-1,5-benzoxazepin-3-yl]-5H-furo[3,4-d]pyrimidine-2-carboxamide] to `O=C(N[C@H]1COc2cc(F)cc(F)c2NC1=O)c1nc2n(n1)CCC2c1ccccc1` (stereo in doubt) [Example 626, (7R)-7-phenyl-N-[(3S)-6,8-difluoro-4-oxo-3,5-dihydro-2H-1,5-benzoxazepin-3-yl]-6,7-dihydro-5H-pyrrolo[1,2-b][1,2,4]triazole-2-carboxamide], the Ki falls from 163 nM to 14 nM (12-fold).

Going from `CN1C(=O)[C@@H](NC(=O)c2nc3n(n2)CCC3c2ccccc2)CCn2nccc21` (stereo partly drawn) [Example 579, 7-phenyl-N-[(6S)-4-methyl-5-oxo-7,8-dihydro-6H-pyrazolo[1,5-a][1,3]diazepin-6-yl]-6,7-dihydro-5H-pyrrolo[1,2-b][1,2,4]triazole-2-carboxamide] to `CN1C(=O)[C@@H](NC(=O)c2nc3n(n2)[C@H](c2ccccc2)CC3)CCn2nccc21` (single isomer, unassigned) [Example 363], the Ki falls from 37 nM to 21.2 nM (1.7-fold).
